Test results taken from publication PMC9502272, “A Metabolomics Approach for Predicting OATP1B-Type Transporter-Mediated Drug–Drug Interaction Liabilities” (Pharmaceutics, 2022).
Where a name gives a salt, the structure may show the parent alone.

Target: T1, Oatp1b2 (Mus musculus, UniProt Q9JJL3)
T1 sequence (Q9JJL3 1-689): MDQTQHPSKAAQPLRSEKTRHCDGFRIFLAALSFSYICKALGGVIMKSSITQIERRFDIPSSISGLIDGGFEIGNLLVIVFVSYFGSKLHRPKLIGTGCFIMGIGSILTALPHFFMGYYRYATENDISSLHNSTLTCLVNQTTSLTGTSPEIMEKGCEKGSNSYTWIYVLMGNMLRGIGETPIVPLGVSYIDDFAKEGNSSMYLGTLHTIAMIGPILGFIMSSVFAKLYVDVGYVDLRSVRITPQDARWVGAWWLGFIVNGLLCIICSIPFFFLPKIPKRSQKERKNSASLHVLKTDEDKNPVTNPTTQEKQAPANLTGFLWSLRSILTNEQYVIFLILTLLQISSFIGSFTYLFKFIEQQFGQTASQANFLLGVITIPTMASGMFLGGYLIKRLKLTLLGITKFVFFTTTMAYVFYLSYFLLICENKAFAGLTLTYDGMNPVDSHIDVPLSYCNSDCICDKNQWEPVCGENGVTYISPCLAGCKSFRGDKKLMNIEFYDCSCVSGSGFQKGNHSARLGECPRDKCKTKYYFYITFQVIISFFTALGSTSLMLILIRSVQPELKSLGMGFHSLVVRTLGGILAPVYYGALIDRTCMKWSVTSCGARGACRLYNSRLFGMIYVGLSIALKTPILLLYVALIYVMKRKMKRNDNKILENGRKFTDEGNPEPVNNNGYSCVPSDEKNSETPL
Experiment: Untargeted metabolomics of plasma from untreated wild-type and Oatp1b2(−/−) mice
Details: for Fold of Change KO/WT: plasma of untreated Oatp1b2-deficient (KO) vs wild-type (WT) mice, semi-quantitative, positive = higher in KO, n = 6 per group; for Mean value KO: plasma of untreated Oatp1b2-deficient mice; for Mean value KO / Mean value WT: raw area counts rescaled to median = 1; for Mean value WT: plasma of untreated wild-type mice

Fold of Change KO/WT | Mean value KO | Mean value WT | Compound
1.14 | 1.09 | .960 | CCCCCCCCCCCCCCCCCC(=O)O[C@H](COC(=O)CCCCCCCCCCCCCCC)COP(=O)([O-])OCC[N+](C)(C)C [1-palmitoyl-2-stearoyl-GPC (16:0/18:0)]
 |  | .940 | sphingomyelin (d18:2/16:0, d18:1/16:1)
1.68 | 1.43 | .850 | CC(C)C(O)C(=O)O (stereo not drawn) [alpha-hydroxyisovalerate]
4.09 | 1.84 | .450 | C=CC1=C(C)/C(=C/C2=NC(=C\c3[nH]c(/C=C4\NC(=O)C(C)=C4C=C)c(C)c3CCC(=O)O)/C(CCC(=O)O)=C2C)NC1=O [biliverdin]
4.27 | 1.96 | .459 | O=C(O)CCCCCCCCCCCCC(=O)O [tetradecanedioate (C14-DC)]
45.2 | 2.71 | .0600 | C[C@H](CCC(=O)O)[C@H]1CC[C@H]2[C@@H]3[C@H](O)[C@@H](O)[C@@H]4C[C@H](O)CC[C@]4(C)[C@H]3CC[C@]12C [alpha-muricholate]
2.02 | 1.34 | .664 | CCCCCCCCCCCCCCCC(=O)OC[C@H](COP(=O)(O)OCCN)OC(=O)CCCCCCCCCCCCCCC [1,2-dipalmitoyl-GPE (16:0/16:0)]
1.72 | 1.37 | .795 | dihomo-linolenoylcarnitine (C20:3n3 or 6)
1.34 | 1.16 | .862 | CCCCC/C=C\C/C=C\CCCCCCCC(=O)O[C@H](CO/C=C\CCCCCCCCCCCCCC)COP(=O)(O)OCCN [1-(1-enyl-palmitoyl)-2-linoleoyl-GPE (P-16:0/18:2)]
1.62 | 1.39 | .855 | O=C(O)CCc1ccccc1.O=C(O)CCc1ccccc1 [3-phenylpropionate (hydrocinnamate)]
5.36 | 1.80 | .335 | eicosenedioate (C20:1-DC)
1.31 | 1.22 | .927 | OC[C@@H](O)[C@@H](O)CO [erythritol]
1.58 | 1.10 | .694 | C[C@H](CCC(=O)NCCS(=O)(=O)O)[C@H]1CC[C@H]2[C@@H]3CC[C@@H]4C[C@H](OS(=O)(=O)O)CC[C@]4(C)[C@H]3C[C@H](O)[C@]12C [taurodeoxycholic acid 3-sulfate]
1.48 | 1.11 | .754 | CCCCC/C=C\C/C=C\C/C=C\C/C=C\CCCC(=O)OC[C@@H](O)COP(=O)(O)OC1C(O)C(O)C(O)C(O)C1O (stereo partly drawn) [1-arachidonoyl-GPI (20:4)]
1.20 | 1.07 | .892 | CCCCCCCC/C=C\CCCCCCCC(=O)O[C@H](COC(=O)CCCCCCCCCCCCCCCCC)COP(=O)([O-])OCC[N+](C)(C)C [1-stearoyl-2-oleoyl-GPC (18:0/18:1)]
5.40 | 2.00 | .371 | CCCCCCCCCCCCCCCC(=O)OC[C@@H](O)COP(=O)(O)OCC(O)CO (stereo partly drawn) [1-palmitoyl-GPG (16:0)]
 | 1.08 | .838 | taurocholenate sulfate
1.27 | 1.20 | .944 | CC(CCC[C@@H](C)[C@H]1CC[C@H]2[C@@H]3[C@H](O)CC4=CC(=O)CC[C@]4(C)[C@H]3CC[C@]12C)C(=O)O (stereo partly drawn) [7-alpha-hydroxy-3-oxo-4-cholestenoate (7-Hoca)]
2.10 | 1.57 | .749 | O=C(O)CCCCCCCCCCCCCCC(=O)O [hexadecanedioate (C16-DC)]
13.1 | 1.16 | .0890 | C[C@H](CCC(=O)O)[C@H]1CC[C@H]2[C@@H]3C[C@@H](O)[C@@H]4C[C@H](O)CC[C@]4(C)[C@H]3CC[C@]12C [6-beta-hydroxylithocholate]

Fold of Change KO/WT | Mean value KO | Mean value WT | Compound
1.36 | 1.29 | .945 | CCCCC/C=C\C/C=C\CCCCCCCC(N)=O [linoleamide (18:2n6)]
2.41 | 1.58 | .656 | O=C(O)CNC(=O)CCc1ccccc1 [phenylpropionylglycine]
14.7 | 3.94 | .269 | C[C@H](CCC(=O)O)[C@H]1CC[C@H]2[C@@H]3C[C@H](O)[C@@H]4C[C@H](O)CC[C@]4(C)[C@H]3CC[C@]12C [hyodeoxycholate]
1.23 | 1.17 | .950 | N[C@@H](CCC(=O)NCC(=O)O)C(=O)O [gamma-glutamylglycine]
1.46 | 1.30 | .891 | CCCCC/C=C\C/C=C\C/C=C\C/C=C\CCCC(=O)O[C@H](CO/C=C\CCCCCCCCCCCCCC)COP(=O)([O-])OCC[N+](C)(C)C [1-(1-enyl-palmitoyl)-2-arachidonoyl-GPC (P-16:0/20:4)]
1.35 | 1.17 | .861 | CC(=O)N[C@@H](CCCCNC(N)=O)C(=O)O [N-acetylhomocitrulline]
1.34 | 1.21 | .902 | Cc1ncc(CO)c(C(=O)O)c1O [pyridoxate]
8.12 | 2.97 | .366 | O=C(O)CCCCCCCCCCC(=O)O [dodecanedioate (C12-DC)]
1.78 | 1.30 | .732 | CCCCCCCC/C=C\CCCCCCCC(=O)OC[C@@H](O)COP(=O)([O-])OCC[N+](C)(C)C [1-oleoyl-GPC (18:1)]
1.38 | 1.27 | .916 | O=C(O)CCCCCCCCCCCCCCCCC(=O)O [octadecanedioate (C18-DC)]
1.51 | 1.40 | .923 | CC/C=C\C/C=C\C/C=C\CCCCCCCC(=O)O[C@H](COC(=O)CCCCCCC/C=C\C/C=C\CCCCC)COP(=O)([O-])OCC[N+](C)(C)C [1-linoleoyl-2-linolenoyl-GPC (18:2/18:3)]
1.64 | 1.34 | .818 | O=C(O)Cc1cn(C2O[C@H](CO)[C@@H](O)[C@H]2O)cn1 (stereo partly drawn) [1-ribosyl-imidazoleacetate]
1.59 | 1.40 | .880 | CCCCCC(=O)NCC(=O)O [hexanoylglycine]
1.36 | 1.16 | .847 | CCCCCCCCCCCCCCCCCCCCCCCC(=O)OC[C@@H](O)COP(=O)([O-])OCC[N+](C)(C)C [1-lignoceroyl-GPC (24:0)]
2.25 | 0.960 | .425 | C[C@H](CCC(=O)NCCS(=O)(=O)O)[C@H]1CC[C@H]2[C@@H]3CC[C@@H]4C[C@H](OS(=O)(=O)O)CC[C@]4(C)[C@H]3CC[C@]12C [taurolithocholate 3-sulfate]
1.19 | 1.11 | .931 | CSC[C@H](NC(=O)CC[C@H](N)C(=O)O)C(=O)NCC(=O)O [S-methylglutathione]
1.57 | 1.28 | .815 | CC(C)CCC(=O)NCC(=O)O [isocaproylglycine]
1.30 | 1.08 | .834 | CCCCCCCC/C=C\CCCCCCCC(=O)O[C@H](COC(=O)CCCCCCCCCCCCCCC)COP(=O)([O-])OCC[N+](C)(C)C [1-palmitoyl-2-oleoyl-GPC (16:0/18:1)]
1.91 | 1.51 | .794 | linolenoylcarnitine (C18:3)

Compound | Fold of Change KO/WT | Mean value KO | Mean value WT
Nc1ncnc2c1ncn2C1OC(COP(=O)(O)O)C(O)C1O (stereo not drawn) [adenosine 5'-monophosphate (AMP)] | 1.12 | 1.04 | .927
CCCCCCCCCCCCCCCC/C=C\OC[C@@H](O)COP(=O)(O)OCCN [1-(1-enyl-stearoyl)-GPE (P-18:0)] | 1.72 | 1.28 | .747
Cc1ccc(OS(=O)(=O)O)cc1 [p-cresol sulfate] | 9.29 | 4.66 | .501
